Tested on: patients with inadequately controlled type 2 diabetes
Procedure: The data represent findings from a randomized, double-blind, placebo-controlled study of 546 individuals with type 2 diabetes whose HbA1c was greater than or equal to 7.0 percent and less than or equal to 10 percent at baseline. […] Patients in all arms also received metformin (greater than or equal to 1500 mg/d). […] Exploratory endpoints included body weight decrease of greater than or equal to 5 percent or greater than or equal to 10 percent as well as body weight percent change from baseline.

Question: For `CCOc1ccc(Cc2cc([C@@H]3O[C@H](CO)[C@@H](O)[C@H](O)[C@H]3O)ccc2Cl)cc1` [dapagliflozin, (2S,3R,4R,5S,6R)-2-(4-chloro-3-(4-ethoxybenzyl)phenyl)-6-(hydroxymethyl)tetrahydro-2H-pyran-3,4,5-triol], which “mean reductions in body weight compared to individuals taking placebo” value (add-on to metformin, 24 weeks) is on record?
Answer: statistically greater

Question: And the “adjusted mean change in FPG from baseline at Week 24” value (dapagliflozin 10 mg plus metformin)?
Answer: -23.5 mg/dL

Question: What about the “patients who achieved weight losses greater than or equal to 5 percent compared to placebo” value (exploratory endpoint, add-on to metformin, 24 weeks) of the same compound?
Answer: more patients

— patent US9616028B2, “Bilayer tablet formulations” (AstraZeneca AB, priority 2009, dated 2017)
